The values below come from PMC4263271 (Nature, 2014).

The target of one test is PHD-2/Egln1 (Homo sapiens, UniProt Q9GZT9). Nature of the test: DARTS with Western blot, HeLa lysate. In kind it is binding. Particulars: TNC buffer pH 8.0, 10 mM CaCl2; room temperature.
The target in test [1] is ATP5B (ATP synthase subunit beta) (Homo sapiens, UniProt P06576). Nature of the test: DARTS with LC-MS/MS. The class given is binding. Particulars: TNC buffer pH 8.0, 10 mM CaCl2; room temperature.
ATP5B (ATP synthase subunit beta), sequence (P06576 48-529): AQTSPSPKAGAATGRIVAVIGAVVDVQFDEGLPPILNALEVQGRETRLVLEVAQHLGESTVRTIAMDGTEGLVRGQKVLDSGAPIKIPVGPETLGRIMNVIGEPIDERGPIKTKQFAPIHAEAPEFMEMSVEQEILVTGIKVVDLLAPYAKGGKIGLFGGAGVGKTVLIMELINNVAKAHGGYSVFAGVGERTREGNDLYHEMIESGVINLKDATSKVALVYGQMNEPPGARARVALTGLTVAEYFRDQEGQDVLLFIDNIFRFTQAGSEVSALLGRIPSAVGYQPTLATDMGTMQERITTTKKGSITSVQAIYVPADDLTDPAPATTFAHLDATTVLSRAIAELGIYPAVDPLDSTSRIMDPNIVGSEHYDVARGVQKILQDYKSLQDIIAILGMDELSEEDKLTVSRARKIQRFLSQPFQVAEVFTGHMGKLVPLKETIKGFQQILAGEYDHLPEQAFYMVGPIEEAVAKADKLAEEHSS

PHD-2/Egln1, sequence (Q9GZT9 2-426): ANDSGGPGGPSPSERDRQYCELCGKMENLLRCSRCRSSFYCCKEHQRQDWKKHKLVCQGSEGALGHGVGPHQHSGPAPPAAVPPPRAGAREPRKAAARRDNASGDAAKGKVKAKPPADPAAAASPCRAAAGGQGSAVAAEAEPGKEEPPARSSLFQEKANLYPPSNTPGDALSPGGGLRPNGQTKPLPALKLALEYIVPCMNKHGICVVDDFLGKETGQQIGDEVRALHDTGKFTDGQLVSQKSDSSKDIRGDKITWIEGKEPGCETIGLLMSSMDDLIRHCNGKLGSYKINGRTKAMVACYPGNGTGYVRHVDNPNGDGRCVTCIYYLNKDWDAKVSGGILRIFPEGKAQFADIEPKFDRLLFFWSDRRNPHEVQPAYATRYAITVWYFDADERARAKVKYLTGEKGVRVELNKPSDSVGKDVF

Consider `O=C(O)CCC(=O)C(=O)O` [α-KG], for which, on PHD-2/Egln1, the “DARTS with Western blot, HeLa lysate” value was “Binding between α-KG and PHD-2/Egln1”. The “DARTS with LC-MS/MS (Jurkat) and Western blot (HeLa)” value in test [1] is “DARTS confirms α-KG binding specifically to ATP5B”.
